Among the data in patent US10342796B2, “Acrylanilide derivative, preparation method, and applications thereof in pharmacy” (Ancureall Pharmaceutical (Shanghai) Co., Ltd., priority 2015, dated 2019) are GI50 values, retold here.

Structures are written as SMILES. Read-outs that look alike come from different tables or passages of the source.

What all share (experiment): Growth inhibition GI50 in vitro (CCK8/MTT, 72 h)
The subject of assay [1] is SNU1040 (HER2 V777M positive). The format is cell-based. The settings on record: Homo sapiens; Table 16; 1000 nM to 0.03 nM serial dilution; read-out: GI50 SNU-1040 (HER2 V777M). The procedure: (§1) Human lung adenocarcinoma cell line Calu-3 (ATCC) was cultured with 1×MEM complete medium (10% FBS, 1% double-antibiotics, 1% NEAA (Gibco), 2 mM glutamine and 1 mM of sodium pyruvate). Human breast cancer cell line SK-BR-3 was cultured with McCOY'S5A complete medium (10% FBS). Human colon cancer cell line SNU1040 (HER2 V777M positive) (ATCC) and human bronchoalveolar adenocarcinoma cell line NCI-H1781 (expressing HER2 exon 20 G776VC mutation) (ATCC) were cultured with 1×RPMI1640 complete medium (10% FBS), respectively.
(§2) Adherent cells were digested with 0.25% pancreatin-EDTA (Gibco). The suspension cells were collected by centrifugation. The supernatant was discard and the cell pellet was resuspended and counted. Different cell concentrations (5˜10×10^4 cells/mL) were prepared according to the growth cycle of each cell line and then seeded on a 96-well plate (Corning), 100 μL/well. The cells were incubated over night at 37° C., 5% CO2. The compounds were added to the cells on the second day with 2 wells in parallel. The final concentration of organic solvent shall not exceed 1%. The cells were continually incubated for 72 h, and then subjected to MTT assay.
(§3) The present compounds and the reference compounds were dissolved with DMSO (Sigma), respectively. […] The storage concentration of compounds was 10 mM and kept at −20° C. They were diluted by 2 times or 10 times with serial dilution before using.
(§4) Dojindo CCK8 reagent kit was used as MTT assay. […] FC meter was used as microplate reader.
(§5) Adherent cell culture medium was discard and immediately replaced with fresh prepared medium which contains 10% CCK8 reagent (100 μL/well). For the suspension cells, CCK8 was directly added to 10% of the final concentration. The cells were continually incubated for 1˜4 h. When the color of control wells turned to dark yellow, the absorption value was measured at OD450 nm. The cell growth rate was calculated according to the following formula: cell growth rate (%)=100*(T−T0)/(C−T0), T=optical density of drug treatment cell well—optical density of blank control well; T0=optical density of cell well before drug treatment—optical density of blank control well; C=optical density of cell well of solvent control group—optical density of blank control well. The concentration value of 50% inhibition of cell growth (GI50) was calculated. The experiment was independently repeated 1˜3 times, and subject to biological statistical analysis.
(§6) Furthermore, the present compounds (99, 136, 205, 211, 212, 213, 216, 229, 230, 231, 232, 233 and 236) were selected to carry out growth inhibition test for HER2/ERBB2 gene amplified or high expressed or mutant tumor cells. Afatinib and AZD9291 were used for references as second- and third-generation inhibitors of EGFR.
(§7) Each compound started at 1000 nM as an initial concentration and was diluted by 2 times with serial dilution to 0.03 nM. The GI50 value of each compound was calculated according to Test Example 1.3.

Assay [2] relates to NCI-H1781 (HER2 exon 20 G776VC mutation). The format is cell-based. The settings on record: Homo sapiens, NCI-H1781; Table 16; 1000 nM to 0.03 nM serial dilution; read-out: GI50 H1781 (HER2 G776VC). The method, then: as §1, §2, §3, §4, §5, §6, §7
For a further assay, the system named is PC-9 (EGFR dE746-A750). The format is cell-based, human. The settings on record: Homo sapiens.
The test system of the next assay is H1975 (EGFR L858R/T790M). The format is cell-based, human. The settings on record: Homo sapiens, NCI-H1975.
For another assay, the system named is Calu-3 (Her2 amp). The format is cell-based. The settings on record: Homo sapiens, Calu-3; Table 16; 1000 nM to 0.03 nM serial dilution; read-out: GI50 Calu3 (HER2 amp). The procedure: as §1
(§8) The suspension cells were collected by centrifugation. The supernatant was discard and the cell pellet was resuspended and counted. Different cell concentrations (5˜10×10^4 cells/mL) were prepared according to the growth cycle of each cell line and then seeded on a 96-well plate (Corning), 100 μL/well. The cells were incubated over night at 37° C., 5% CO2. The compounds were added to the cells on the second day with 2 wells in parallel. The final concentration of organic solvent shall not exceed 1%. The cells were continually incubated for 72 h, and then subjected to MTT assay.
as §3, §4
as §5, with “The concentration value of 50% inhibition of cell growth (GI50) was calculated.” left out

Another assay relates to H292 (EGFR WT). The format is cell-based. The settings on record: Homo sapiens, NCI-H292; Table 15; 1000 nM to 0.03 nM serial dilution; read-out: GI50 H292 (EGFR WT).
Source text: EGFR wild type cell lines: human epidermal cancer cell line A431 (EGFR WT, amplification and high expression, from Shanghai Cell Bank of Chinese Academy of Sciences and ATCC), NSCLC cell lines NCI-H460 (EGFR WT, Kras G61H and PI3KCA E545K mutants, ATCC) and NCI-H1299 (EGFR WT, ATCC), melanoma cell line A375 (EGFR WT and BRAF V600E mutant, from Shanghai Cell Bank of Chinese Academy of Sciences, ATCC), human lung cancer cell line NCI-H292 (EGFR WT, from human lung mucoepidermoid carcinoma/lymphatic metastasis, purchased from Shanghai Cell Bank of Chinese Academy of Sciences) were cultured with 1×RPMI1640 complete medium which was supplement with 10% FBS. NSCLC cell line A549 (EGFR WT and Kras G12S mutant, from Shanghai Cell Bank of Chinese Academy of Sciences) was cultured with 1×Ham'S F12K complete medium which was supplement with 10% FBS, 1% double-antibiotics and 2 mM glutamine.
as §8, §3, §4
as §5, with “The concentration value of 50% inhibition of cell growth (GI50) was calculated.” left out

Assay [3] has as its system SW48 (EGFR G719S positive). The format is cell-based. The settings on record: Homo sapiens, SW48; Table 15; 1000 nM to 0.03 nM serial dilution; read-out: GI50 SW48 (EGFR G719S). The method, then:
PC-9ER is an acquired Erlotinib resistance cell line of PC-9 cells developed by the investor. […] The four cell lines above were cultured with 1×RPMI1640 complete medium (supplement with 10% FBS). Human colon cancer cell line SW48 (EGFR G719S positive, ATCC). was cultured with L15 complete medium (10% FB S).
as §8, §3, §4
as §5, with “The concentration value of 50% inhibition of cell growth (GI50) was calculated.” left out
Each compound started at 1000 nM as an initial concentration and was diluted by […] with serial dilution to 0.03 nM.

A further assay deals with N87 (HER2 Amp). The format is cell-based, human. The settings on record: Homo sapiens.
For the next assay, the system named is A549 (EGFR WT). The format is cell-based, human. The settings on record: Homo sapiens, A549.
Setting [4] is: Table 13, 72 h, read-out: Range of GI50 PC-9 (EGFR dE746-A750).
The mark [5] stands for this setting: Table 15, 1000 nM to 0.03 nM serial dilution, read-out: GI50 PC-9 (EGFR dE746-A750).
The mark [6] stands for this setting: Table 13, 72 h, read-out: Range of GI50 H1975 (EGFR L858R/T790M).
[7] abbreviates: Table 15, 1000 nM to 0.03 nM serial dilution, read-out: GI50 H1975 (EGFR L858R/T790M).
Setting [8] is: Table 13, 72 h, read-out: Range of GI50 N87 (HER2 Amp).
Setting [9] is: Table 16, 1000 nM to 0.03 nM serial dilution, read-out: GI50 N87 (HER2 amp).
The mark [10] stands for this setting: Table 13, 72 h, read-out: Range of GI50 A549 (EGFR WT).
The mark [11] stands for this setting: Table 15, 1000 nM to 0.03 nM serial dilution, read-out: GI50 A549 (EGFR WT).

As to `C=CC(=O)Nc1cc(Nc2cc(Nc3cc(F)cc(C(F)(F)F)c3)ncn2)c(OC)cc1N(C)CCN(C)C` [Compound 230, N-(5-(6-(5-fluoro-3-trifluoromethyl-phenylamino)-pyrimidin-4-yl-amino)-2-((2-dimethylamino-ethyl)-methyl-amino)-4-methoxyl-phenyl)-acrylamide], the GI50 in assay [1] was 13.2 nM; in assay [2] it was 1.91 nM; in the assay on PC-9 (EGFR dE746-A750) (setting [4]), < 10 nM; with PC-9 (EGFR dE746-A750) (setting [5]), 0.37 nM; with H1975 (EGFR L858R/T790M) (setting [6]), 10 to 100 nM; in the assay with H1975 (EGFR L858R/T790M) (setting [7]), 19 nM. Further, the GI50 was 2.67 nM in the assay with Calu-3 (Her2 amp); > 1000 nM in the assay with H292 (EGFR WT); 5.87 nM in assay [3]; < 10 nM in the assay with N87 (HER2 Amp) (setting [8]); 3.9 nM in the assay on N87 (HER2 Amp) (setting [9]); > 1000 nM in the assay on A549 (EGFR WT) (setting [10]). Also, in the assay with A549 (EGFR WT) (setting [11]), the GI50 was > 1000 nM.

`C=CC(=O)Nc1cc(Nc2cc(Nc3cccc(C#N)c3)ncn2)c(OC)cc1N(C)CCN(C)C` [Compound 229, N-(5-(6-(3-cyano-phenylamino)-pyrimidin-4-yl-amino)-2-((2-dimethylamino-ethyl)-methyl-amino)-4-methoxyl-phenyl)-acrylamide]: the GI50 in assay [1] was 10.3 nM; in assay [2] it was 0.95 nM; in the assay with PC-9 (EGFR dE746-A750) (setting [4]) it was < 10 nM; with PC-9 (EGFR dE746-A750) (setting [5]) it was 0.98 nM; with H1975 (EGFR L858R/T790M) (setting [6]), 10 to 100 nM; in the assay on H1975 (EGFR L858R/T790M) (setting [7]) it was 19.1 nM. Also, the GI50 was 1.26 nM in the assay on Calu-3 (Her2 amp); > 1000 nM in the assay on H292 (EGFR WT); 4.92 nM in [3]; < 10 nM in the assay with N87 (HER2 Amp) (setting [8]); 1.95 nM in the assay with N87 (HER2 Amp) (setting [9]); > 1000 nM with A549 (EGFR WT) (setting [10]). Besides, the GI50 with A549 (EGFR WT) (setting [11]) is > 1000 nM.

On to `C=CC(=O)Nc1cc(Nc2cc(Nc3cc(OC)cc(C(F)(F)F)c3)ncn2)c(OC)cc1N(C)CCN(C)C` [Compound 232, N-(5-(6-(3-methoxyl-5-trifluoromethyl-phenylamino)-pyrimidin-4-yl-amino)-2-((2-dimethylamino-ethyl)-methyl-amino)-4-methoxyl-phenyl)-acrylamide], for which the GI50 was 6.82 nM in assay [1]; 1.02 nM in [2]; < 10 nM in the assay on PC-9 (EGFR dE746-A750) (setting [4]); 2.43 nM in the assay with PC-9 (EGFR dE746-A750) (setting [5]); 10 to 100 nM with H1975 (EGFR L858R/T790M) (setting [6]); 16.9 nM with H1975 (EGFR L858R/T790M) (setting [7]). Also, the GI50 in the assay on Calu-3 (Her2 amp) was 2.49 nM; with H292 (EGFR WT), > 1000 nM; in assay [3], 4.87 nM; in the assay on N87 (HER2 Amp) (setting [8]), < 10 nM; in the assay on N87 (HER2 Amp) (setting [9]) it was 1.92 nM; with A549 (EGFR WT) (setting [10]), > 1000 nM. Also, the GI50 in the assay with A549 (EGFR WT) (setting [11]) was > 1000 nM.

For `C=CC(=O)Nc1cc(Nc2cc(Nc3cc(C(F)(F)F)ccc3OC)ncn2)c(OC)cc1N(C)CCN(C)C` [Compound 233, N-(5-(6-(2-methoxyl-5-trifluoromethyl-phenylamino)-pyrimidin-4-yl-amino)-2-((2-dimethylamino-ethyl)-methyl-amino)-4-methoxyl-phenyl)-acrylamide], the GI50 is 7.21 nM in assay [1]; 0.87 nM in [2]; < 10 nM in the assay on PC-9 (EGFR dE746-A750) (setting [4]); 0.49 nM in the assay on PC-9 (EGFR dE746-A750) (setting [5]); 10 to 100 nM with H1975 (EGFR L858R/T790M) (setting [6]); 19.2 nM in the assay with H1975 (EGFR L858R/T790M) (setting [7]). For the same compound, the GI50 was 0.98 nM in the assay on Calu-3 (Her2 amp); > 1000 nM in the assay on H292 (EGFR WT); 4.19 nM in assay [3]; < 10 nM in the assay on N87 (HER2 Amp) (setting [8]); 0.95 nM in the assay on N87 (HER2 Amp) (setting [9]); > 1000 nM in the assay with A549 (EGFR WT) (setting [10]). In the assay on A549 (EGFR WT) (setting [11]), the GI50 was > 1000 nM.

Take `C=CC(=O)Nc1cc(Nc2cc(Nc3cc(C(F)(F)F)ccc3F)ncn2)c(OC)cc1N(C)CCN(C)C` [Compound 231, N-(5-(6-(2-fluoro-5-trifluoromethyl-phenylamino)-pyrimidin-4-yl-amino)-2-((2-dimethylamino-ethyl)-methyl-amino)-4-methoxyl-phenyl)-acrylamide]: the GI50 was 6.75 nM in [1]; 1.79 nM in [2]; < 10 nM with PC-9 (EGFR dE746-A750) (setting [4]); 0.19 nM with PC-9 (EGFR dE746-A750) (setting [5]); 10 to 100 nM with H1975 (EGFR L858R/T790M) (setting [6]); 19.5 nM in the assay on H1975 (EGFR L858R/T790M) (setting [7]). Moreover, the GI50 in the assay with Calu-3 (Her2 amp) was 5.6 nM; in the assay with H292 (EGFR WT), > 1000 nM; in assay [3], 3.13 nM; with N87 (HER2 Amp) (setting [8]), < 10 nM; with N87 (HER2 Amp) (setting [9]) it was 4.21 nM; in the assay with A549 (EGFR WT) (setting [10]), > 1000 nM. For the same compound, the GI50 with A549 (EGFR WT) (setting [11]) is > 1000 nM.
